The source of these data is ChEMBL document CHEMBL3045458, “Design, synthesis and biological evaluation of novel arylidine-malononitrile derivatives as non-carboxylic inhibitors of protein tyrosine phosphatase 1B” (Med Chem Res, 2013).

The target in series [1] is T1, Tyrosine-protein phosphatase non-receptor type 1 (Homo sapiens) (UniProt P18031).
T1 sequence (whole entry): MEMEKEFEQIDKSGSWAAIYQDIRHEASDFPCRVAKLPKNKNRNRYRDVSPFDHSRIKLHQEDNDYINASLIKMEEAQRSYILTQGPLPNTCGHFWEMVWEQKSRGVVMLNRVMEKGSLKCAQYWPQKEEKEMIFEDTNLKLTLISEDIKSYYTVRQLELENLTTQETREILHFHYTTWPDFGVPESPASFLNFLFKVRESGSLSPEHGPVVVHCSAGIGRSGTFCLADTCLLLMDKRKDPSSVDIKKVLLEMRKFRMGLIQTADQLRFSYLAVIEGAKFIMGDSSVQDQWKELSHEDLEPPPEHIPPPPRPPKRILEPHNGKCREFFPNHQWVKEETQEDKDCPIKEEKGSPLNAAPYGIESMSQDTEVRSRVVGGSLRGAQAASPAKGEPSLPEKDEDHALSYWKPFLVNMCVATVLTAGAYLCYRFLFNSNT
Put plainly: Inhibition of PTP1B (unknown origin) at 10 uM.

A further series deals with L6 (Rattus norvegicus). Description: Glucose uptake in Rattus norvegicus (rat) L6 cells at 50 uM.
For series [2], the species on record is Danio rerio. Description: Toxicity in Danio rerio (zebrafish) embryo assessed as developmental delays at 10 uM after 24 to 72 hr by light microscopic analysis relative to control. It counts as organism-based. The conditions noted are these: in vivo.
Series [3] is filed under the species Danio rerio. Description: Toxicity in Danio rerio (zebrafish) embryo assessed as mortality at 10 uM after 24 to 72 hr by light microscopic analysis relative to control. The conditions noted are these: in vivo. The series is classed as organism-based.
The subject of series [4] is Danio rerio. Description: Toxicity in Danio rerio (zebrafish) embryo assessed as oedema at 10 uM after 24 to 72 hr by light microscopic analysis relative to control. The series is classed as organism-based. The settings on record: in vivo.
For series [5], the species on record is Danio rerio. Put plainly: Toxicity in Danio rerio (zebrafish) embryo assessed as deformations at 10 uM after 24 to 72 hr by light microscopic analysis relative to control. The conditions noted are these: in vivo. It counts as organism-based.

As a reminder, the inhibition is how much of the control response was suppressed. Low values mean little suppression, high ones strong suppression. On to `N#CC(C#N)=Cc1ccc(OCCSc2nnc(-c3ccc(F)cc3)o2)cc1`, for which, in series [1], the inhibition was 30.4%. For the same molecule, in the series with L6 (Rattus norvegicus), the glucose uptake came out at 13.3%.

For the molecule `N#CC(C#N)=Cc1ccc(OCCSc2nnc(-c3ccccc3)o2)cc1`, the Activity entry in the series filed under Danio rerio [2], in the series listed under Danio rerio [3], in the series with Danio rerio [4] and in the series filed under Danio rerio [5] was “Non-toxic” in each case. Also, in series [1], the inhibition was 54.6%. The molecule also registered a glucose uptake in the series with L6 (Rattus norvegicus) of 25.3%.

Molecule `N#CC(C#N)=Cc1ccc(OCCSc2nnc(-c3ccccc3Cl)o2)cc1` had an inhibition in series [1] of 23.4%. The same molecule gave a glucose uptake in the series on L6 (Rattus norvegicus) of 26.6%.

The molecule `Cc1ccc(-c2nnc(SCCOc3ccc(C=C(C#N)C#N)cc3)o2)cc1` displayed an inhibition in series [1] of 44.5%. The glucose uptake in the series on L6 (Rattus norvegicus) turned out to be 18.8%.

In the case of `COc1ccccc1-c1nnc(SCCOc2ccc(C=C(C#N)C#N)cc2)o1`, the Activity entry in the series filed under Danio rerio [2], in the series filed under Danio rerio [3], with Danio rerio [4] and in the series filed under Danio rerio [5] was “Non-toxic” in each case. Moreover, the inhibition in series [1] is 50%. Further, the glucose uptake in the series on L6 (Rattus norvegicus) was 38.5%.

Molecule `N#CC(C#N)=Cc1ccc(OCCSc2nnc(-c3ccc(Cl)cc3)o2)cc1` returned an inhibition in series [1] of 34.3%. In the series on L6 (Rattus norvegicus), this molecule gave a glucose uptake of 24.2%.

For the molecule `N#CC(C#N)=Cc1ccc(OCCSc2nnc(-c3cccc([N+](=O)[O-])c3)o2)cc1`, the inhibition in series [1] amounted to 41.4%. The molecule also yielded a glucose uptake in the series on L6 (Rattus norvegicus) of 11.8%.

The molecule `COc1cccc(-c2nnc(SCCOc3ccc(C=C(C#N)C#N)cc3)o2)c1` had an inhibition in series [1] of 39%. This molecule showed a glucose uptake in the series with L6 (Rattus norvegicus) of 13.5%.
